“Also recorded” adds a separate entry of the source.
Columns and labels:
[1] = test system: NAFLD model of ob/ob mice induced by high-fat diet; assay: NAFLD model of ob/ob mice induced by high-fat diet (Example 5); type: in vivo; conditions: 8 weeks
Experimental: In this experiment, the NAFLD model of ob/ob mice induced by high-fat diet was used to investigate the treatment effect of long-term oral administration of compound DC291407 on NAFLD.
Animal experiment: ob/ob obese mice were divided into 3 groups according to random blood glucose, random body weight, fasting blood glucose, and fasting body weight at the 8th week of age, with 9 mice in each group. There were the model control group (vehicle) and the DC291407 group (20 mg/kg), the positive compound Alogliptin group (20 mg/kg), respectively and mice were administered by oral gavage, twice a day. A group of 6 normal mice in the same cage was set up as a normal control group (WT). Except for the WT group, they were fed with normal feed, and the rest groups were fed with high-fat feed. The administration was continued for 8 weeks. During the administration, the animal's food intake and body weight were monitored. After the last administration, the animals were fasted for 6 hours and allowed to drink water freely. Then the body weight was measured, the blood was collected from the retro-ocular venous plexus, and liver was dissected. Part of the liver was placed in 4% paraformaldehyde, and the rest was stored in a refrigerator at −80° C. This experiment reflected whether the compound had the treating effect on NAFLD by detecting the levels of liver function indexes ALT and AST in the serum, the contents of TC and TG in the liver, the NAS score of liver pathology (HE staining) and the like.

[2] = test system: CCl4 induced liver fibrosis model mice; assay: CCl4 induced liver fibrosis model mice, long-term oral administration (Example 4); type: in vivo; conditions: for serum ALT level / serum AST level: 20 and 60 mg/kg oral gavage twice a day
Experimental: In this experiment, CCl4 induced liver fibrosis model mice were used to investigate the effect of long-term oral administration of compound DC291407 on liver fibrosis in the model mice.
Animal experiment: Male C57BL/6j mice were injected intraperitoneally with 2 mL/kg, 10% CCl4 (dissolved in olive oil) three times a week to induce liver fibrosis model. Two weeks after modeling, the blood was taken from the retro-ocular venous plexus of the mice, and serum ALT and AST indexes were detected. According to ALT, AST, body weight and other indexes, the mice were randomly divided into 5 groups, each with 10 mice. There were the model control group (vehicle), DC291407 low-dose group (20 mg/kg), DC291407 high-dose group (60 mg/kg), positive compound OCA low-dose group (20 mg/kg), OCA high-dose group (40 mg/kg), respectively, and mice were administered by oral gavage. DC291407 was administered twice a day, and the other groups were administered once a day. During the administration period, the animals' food intake and body weight were monitored. After 3 weeks of administration, the blood was taken from the retro-ocular venous plexus of the mice, and serum ALT and AST indexes were detected. After 6 weeks of administration, the blood was taken from the retro-ocular venous plexus of the mice and then the mice were killed by dislocation. The liver was taken and weighed, part of the liver was fixed with 4% paraformaldehyde, and part of the liver was frozen at −80° C. During the whole experiment, another 10 mice in the same cage were injected intraperitoneally with the same dose of olive oil as a normal control group (WT). This experiment reflected whether the compound had the effect of relieving liver fibrosis by detecting the levels of liver function indexes ALT and AST in serum, the expression of α-SMA and Col1α1 gene levels in the liver, the content of hydroxyproline (a characteristic amino acid of collagen) in the liver, and liver pathological changes (Sirius scarlet staining) and the like.

[3] = test system: Human hepatic stellate cell line LX-2; assay: Inhibition of TGF-β-induced hepatic stellate cell activation (α-SMA, fibronectin by Western Blot); type: cell-based; conditions: LX-2, 10 ng/mL TGF-β plus compound for 24 hours; for inhibition of the activation of hepatic stellate cells HSC: α-SMA and fibronectin by Western Blot
Excerpt: Human hepatic stellate cell line LX-2 was used in cell function experiments. […] By comparing the expression levels of extracellular matrix in the TGF-β group and the cell group in which TGF-β and the compound to be tested were both added at the same time, the efficacy of the compound in alleviating liver fibrosis through hepatic stellate cells was characterized.
The cell experiment procedure was as follows. The human hepatic stellate cell line LX-2 was selected and inoculated into the treated 24-well plate at 7.5×10^4/well. After the cells were adhered overnight and they were subjected to starvation treatment for 12 hours, the cells were treated with 10 ng/mL TGF-β and the corresponding test compound for 24 hours and then protein samples were collected. The expression of extracellular matrix represented by α-smooth muscle myofilament (α-SMA) and fibronectin was detected by Western Blot.

[4] = test system: CCl4-induced liver fibrosis model mice; assay: CCl4-induced liver fibrosis model mice, multiple doses, comparison with sitagliptin (Example 6); type: in vivo; conditions: oral gavage twice a day, 6 weeks
Experimental: In this experiment, CCl4-induced liver fibrosis model mice were used to investigate the effect of long-term oral administration of compound DC291407 under multiple doses on liver fibrosis in the model mice, and comparison was conducted with the same dose of sitagliptin.
Animal experiment: Male C57BL/6j mice were injected intraperitoneally with 2 mL/kg, 10% CCl4 (dissolved in olive oil) three times a week to induce liver fibrosis model. Two weeks after modeling, the blood was taken from the retro-ocular venous plexus of the mice, and serum ALT and AST indexes were detected. According to ALT, AST, body weight and other indexes, the mice were randomly divided into 8 groups with 10 mice in each group. There were the models control group (vehicle), DC291407 low-dose group (6 mg/kg), DC291407 middle-dose group (20 mg/kg), DC291407 high-dose group (60 mg/kg), sitagliptin low-dose group (6 mg/kg), Sitagliptin middle-dose group (20 mg/kg), sitagliptin high-dose group (60 mg/kg) and system positive compound OCA group (20 mg/kg). The mice were administered by oral gavage. The OCA group was administered once a day, and the other groups were administered twice a day. During the administration period, the animals' food intake and body weight were monitored. After 3 weeks of administration, the blood was taken from the retro-ocular venous plexus of the mice, and serum ALT and AST indexes were detected. After 6 weeks of administration, the blood was taken from the retro-ocular venous plexus of the mice and then the mice were killed by dislocation. The liver was taken and weighed, part of the liver was fixed with 4% paraformaldehyde, and part of the liver was frozen at −80° C. During the whole experiment, another 10 mice in the same cage were injected intraperitoneally with the same dose of olive oil as a normal control group (WT). This experiment reflected whether the compound had the effect of relieving liver fibrosis by detecting the levels of liver function indexes ALT and AST in serum, the content of hydroxyproline (a characteristic amino acid of collagen) in the liver, and liver pathological changes (Sirius scarlet staining) and the like.

[5] = 20 mg/kg oral gavage twice a day
[6] = after 3 weeks of administration
[7] = after 6 weeks of administration

## COC(=O)c1cc2nc(N3CCC[C@@H](N)C3)n(Cc3ccccc3C#N)c(=O)c2s1 [DC291407, (R)-methyl-2-(3-aminopiperidin-1-yl)-3-(2-cyanobenzyl)-4-carbonyl-3,4-dihydrothieno[3,2-d]pyrimidine-6 carboxylic acid]
[1]; 20 mg/kg each, twice a day
  effect on serum ALT, AST and liver TG compared with alogliptin: equivalent to that of alogliptin
  effect on steatosis compared with alogliptin: better than that of alogliptin
  overall improvement effect on NAS score compared with alogliptin: equivalent to that of alogliptin
[1]; [5]
  content of TG in liver tissue: significantly reduce
  level of ALT in serum: significantly reduce
  level of AST in serum: significantly reduce
  lobular inflammation (NAS score, HE stained liver sections): a certain alleviating effect
  steatosis (NAS score, HE stained liver sections): improve steatosis
[2]; [6]
  serum ALT level: no decrease
  serum AST level: no decrease
[2]; [7]
  collagen content in the liver (Sirius scarlet stained pathological sections, quantitative analysis): reduce the collagen content in the liver without statistical difference
  content of hydroxyproline in liver tissues: reduced
  expression of Col1α1 mRNA in liver tissues: significantly down-regulated
  expression of α-SMA mRNA in liver tissues: significantly down-regulated
  serum ALT level: significantly reduced
  serum AST level: significantly reduced
[3]
  inhibitory activity on HSC activation compared with positive control Alogliptin: better than that of the positive control Alogliptin
  inhibition of the activation of hepatic stellate cells HSC: concentration-dependently inhibited; also recorded: had an inhibitory effect
[4]; high-dose group 60 mg/kg
  ALT level in serum: significantly reduce
  collagen content in the liver (Sirius scarlet stained sections, quantitative analysis): reduce the collagen content in the liver without dose dependence
[4]; low-dose group 6 mg/kg
  ALT level in serum: significantly reduce
  AST level in serum: significantly reduce
  collagen content in the liver (Sirius scarlet stained sections, quantitative analysis): reduce the collagen content in the liver without dose dependence
  content of hydroxyproline in liver tissues: reduced the content of hydroxyproline in liver tissues without statistics significance
[4]; middle-dose group 20 mg/kg
  ALT level in serum: significantly reduce
  AST level in serum: significantly reduce
  collagen content in the liver (Sirius scarlet stained sections, quantitative analysis): reduce the collagen content in the liver without dose dependence

## N#Cc1ccccc1Cn1c(N2CCC[C@@H](N)C2)nc2cc(C(=O)O)sc2c1=O [DC291410, (R)-2-(3-aminopiperidin-1-yl)-3-(2-cyanobenzyl)-4-carbonyl-3,4-dihydrothieno[3,2-d]pyrimidine-6 carboxylic acid]
[3]
  inhibitory activity on HSC activation compared with positive control Alogliptin: better than that of the positive control Alogliptin
  inhibition of the activation of hepatic stellate cells HSC: concentration-dependently inhibited

## N[C@@H](CC(=O)N1CCn2c(nnc2C(F)(F)F)C1)Cc1cc(F)c(F)cc1F [sitagliptin, reference compound]
[4]; high-dose group 60 mg/kg
  ALT level in serum: significantly reduced
  AST level in serum: significantly reduced
[4]; low-dose group 6 mg/kg
  ALT level in serum: no effect
  AST level in serum: no effect
  collagen content in the liver (Sirius scarlet stained sections, quantitative analysis): significantly reduce the collagen content in the liver
[4]; middle-dose group 20 mg/kg
  AST level in serum: significantly reduced

Reference: patent US11730742B2, “Pharmaceutical use of thiophene [3,2-d] pyrimidine-4-ketone compound” (SHANGHAI INSTITUTE OF MATERIA MEDICA, CHINESE ACADEMY OF …, priority 2018, dated 2023)
